Results on 43 compounds are retold here after patent US9212163B2, “Pesticidal compositions and processes related thereto” (Dow AgroSciences LLC, priority 2012, dated 2015).

In the assay the test system is Beet Armyworm (BAW) (Spodoptera exigua). Kind of assay: Bioassay on Beet Armyworm (BAW), 128-well diet tray assay. The class given is in vivo. The following applies: Table 3: Assay Results Part 1. On the procedure: Certain molecules disclosed in this document were tested against BAW, CEW and CL using procedures described in the following examples. In the reporting of the results, the “BAW & CEW & CL Rating Table” was used (See Table Section).
Bioassays on BAW (Spodoptera exigua)
Bioassays on BAW were conducted using a 128-well diet tray assay. One to five second instar BAW larvae were placed in each well (3 mL) of the diet tray that had been previously filled with 1 mL of artificial diet to which 50 μg/cm^2 of the test compound (dissolved in 50 μL of 90:10 acetone-water mixture) had been applied (to each of eight wells) and then allowed to dry. Trays were covered with a clear self-adhesive cover, and held at 25° C., 14:10 light-dark for five to seven days. Percent mortality was recorded for the larvae in each well; activity in the eight wells was then averaged. The results are indicated in the tables entitled “Table 3: Assay Results Part 1” and “Table 4: Assay Results Part 2” (See Table Section).

As to `O=C(NC1CS(=O)(=O)C1)c1ccc(/C=C/C(c2cc(Cl)cc(Cl)c2)C(F)(F)F)cc1F` (stereo not shown) [AC83, (E)-4-(3-(3,5-Dichlorophenyl)-4,4,4-trifluorobut-1-en-1-yl)-N-(1,1-dioxidothietan-3-yl)-2-fluorobenzamide], the “BAW Rating” value was “A (50-100)”.
To `O=C(NC1CS(=O)(=O)C1)c1ccc(/C=C/C(c2cc(Cl)c(F)c(Cl)c2)C(F)(F)F)cc1F` (stereo not shown) [AC84] belongs “A (50-100)”.
With `COc1cc(/C=C/C(c2cc(Cl)c(F)c(Cl)c2)C(F)(F)F)ccc1C(=O)NC1CS(=O)(=O)C1` (stereo not shown) [AC85], the “BAW Rating” value is “A (50-100)”.
The same measure for `CCc1cc(/C=C/C(c2cc(Cl)c(F)c(Cl)c2)C(F)(F)F)ccc1C(=O)NC1CS(=O)(=O)C1` (stereo not shown) [AC86]: “A (50-100)”.
To `O=C(NC1C[S+]([O-])C1)c1ccc(/C=C/C(c2cc(Cl)c(F)c(Cl)c2)C(F)(F)F)cc1F` (stereo not shown) [AC87] belongs “A (50-100)”.
The same measure for `Cc1cc(/C=C/C(c2cc(Cl)cc(Cl)c2)C(F)(F)F)ccc1C(=O)NCc1nnc(C2CC2)o1` (stereo not shown) [AC89, (E)-N-((5-Cyclopropyl-1,3,4-oxadiazol-2-yl)methyl)-4-(3-(3,5-dichlorophenyl)-4,4,4-trifluorobut-1-en-1-yl)-2-methylbenzamide]: “A (50-100)”.
With `FC(F)(F)CNC(=S)CNC(=S)c1ccc(/C=C/C(c2cc(Cl)c(Cl)c(Cl)c2)C(F)(F)F)cc1Br` (stereo not shown) [AC90, (E)-2-Bromo-N-(2-thioxo-2-((2,2,2-trifluoroethyl)amino)ethyl)-4-(4,4,4-trifluoro-3-(3,4,5-trichlorophenyl)but-1-en-1-yl)benzothioamide], the “BAW Rating” value was “A (50-100)”.
The same measure for `O=C(CNC(=S)c1ccc(/C=C/C(c2cc(Cl)c(Cl)c(Cl)c2)C(F)(F)F)cc1Br)NCC(F)(F)F` (stereo not shown) [AC91, (E)-2-(2-Bromo-4-(4,4,4-trifluoro-3-(3,4,5-trichlorophenyl)but-1-en-1-yl)phenylthioamido)-N-(2,2,2-trifluoroethyl)acetamide]: “A (50-100)”; for `O=C(NCC(=S)NCC(F)(F)F)c1ccc(/C=C/C(c2cc(Cl)c(Cl)c(Cl)c2)C(F)(F)F)cc1Br` (stereo not shown) [AC92, (E)-2-Bromo-N-(2-thioxo-2-((2,2,2-trifluoroethyl)amino)ethyl)-4-(4,4,4-trifluoro-3-(3,4,5-trichlorophenyl)but-1-en-1-yl)benzamide]: “A (50-100)”; for `Cc1cc(/C=C\C(c2cc(Cl)cc(Cl)c2)C(F)(F)F)ccc1C(=O)NCC(=O)NC1CC1` (stereo not shown) [AC93]: “A (50-100)”.
On to `O=C(CNC(=O)c1ccc(/C=C\C(c2cc(Cl)c(Cl)c(Cl)c2)C(F)(F)F)cc1Br)NCC(F)(F)F` (stereo not shown) [AC95, (Z)-2-Bromo-N-(2-oxo-2-((2,2,2-trifluoroethyl)amino)ethyl)-4-(4,4,4-trifluoro-3-(3,4,5-trichlorophenyl)but-1-en-1-yl)benzamide], for which the “BAW Rating” value is recorded as “A (50-100)”.
The same measure for `O=C(CNC(=O)c1ccc(/C=C/C(c2cc(Cl)c(F)c(Cl)c2)C(F)(F)F)cc1[N+](=O)[O-])NCC(F)(F)F` (stereo not shown) [AC98]: “A (50-100)”.
`O=C(CNC(=O)c1ccc(/C=C/C(c2ccc(F)c(Cl)c2)C(F)(F)F)cc1Br)NCC(F)(F)F` (stereo not shown) [AC99]: the “BAW Rating” value was “A (50-100)”.
Turning to `CC(=O)N1CCC(NC(=O)c2ccc(/C=C/C(c3cc(Cl)c(Cl)c(Cl)c3)C(F)(F)F)cc2Br)CC1` (stereo not shown) [AC103, (E)-N-(1-Acetylpiperidin-4-yl)-2-bromo-4-(4,4,4-trifluoro-3-(3,4,5-trichlorophenyl)but-1-en-1-yl)benzamide], the “BAW Rating” value is on record as “A (50-100)”.
To `O=C(NC1CCN(C(=O)CC(F)(F)F)CC1)c1ccc(/C=C/C(c2cc(Cl)c(Cl)c(Cl)c2)C(F)(F)F)cc1Br` (stereo not shown) [AC104, (E)-2-Bromo-4-(4,4,4-trifluoro-3-(3,4,5-trichlorophenyl)but-1-en-1-yl)-N-(1-(3,3,3-trifluoropropanoyl)piperidin-4-yl)benzamide] belongs “A (50-100)”; to `CN1CCC(NC(=O)c2ccc(/C=C/C(c3cc(Cl)c(Cl)c(Cl)c3)C(F)(F)F)cc2Br)CC1` (stereo not shown) [AC106, (E)-2-Bromo-N-(1-methylpiperidin-4-yl)-4-(4,4,4-trifluoro-3-(3,4,5-trichlorophenyl)but-1-en-1-yl)benzamide], “A (50-100)”; to `N#CCN1CCC(NC(=O)c2ccc(/C=C/C(c3cc(Cl)c(Cl)c(Cl)c3)C(F)(F)F)cc2Br)CC1` (stereo not shown) [AC107], “B (More than 0-Less than 50)”.
For `O=C(NC1CCN(C2COC2)CC1)c1ccc(/C=C/C(c2cc(Cl)c(Cl)c(Cl)c2)C(F)(F)F)cc1Br` (stereo not shown) [AC108, (E)-2-Bromo-N-(1-(oxetan-3-yl)piperidin-4-yl)-4-(4,4,4-trifluoro-3-(3,4,5-trichlorophenyl)but-1-en-1-yl)benzamide], the “BAW Rating” value is given as “B (More than 0-Less than 50)”.
The same measure for `CONC(=O)CNC(=O)c1ccc(/C=C/C(c2cc(Cl)c(Cl)c(Cl)c2)C(F)(F)F)cc1Br` (stereo not shown) [AC110]: “A (50-100)”; for `C=CCNC(=O)CNC(=O)c1ccc(/C=C/C(c2cc(Cl)c(Cl)c(Cl)c2)C(F)(F)F)cc1Br` (stereo not shown) [AC111]: “A (50-100)”.
Turning to `O=C(NCCc1ccc(Cl)nc1)c1ccc(/C=C/C(c2cc(Cl)c(Cl)c(Cl)c2)C(F)(F)F)cc1Br` (stereo not shown) [AC113], the “BAW Rating” value is recorded as “B (More than 0-Less than 50)”.
Regarding `O=C(NC1CCNCC1)c1ccc(/C=C/C(c2cc(Cl)c(Cl)c(Cl)c2)C(F)(F)F)cc1Br` (stereo not shown) [AC114, (E)-2-Bromo-N-(piperidin-4-yl)-4-(4,4,4-trifluoro-3-(3,4,5-trichlorophenyl)but-1-en-1-yl)benzamide], the “BAW Rating” value was “A (50-100)”.
Turning to `Cc1cc(/C=C/C(c2cc(Cl)cc(Cl)c2)C(F)(F)F)ccc1C(=S)NCc1ccc(Cl)nc1` (stereo not shown) [AC115, (E)-N-((6-Chloropyridin-3-yl)methyl)-4-(3-(3,5-dichlorophenyl)-4,4,4-trifluorobut-1-en-1-yl)-2-methylbenzothioamide], the “BAW Rating” value was “A (50-100)”.
The same measure for `Cc1cc(/C=C/C(c2cc(Cl)cc(Cl)c2)C(F)(F)F)ccc1C(=O)N(C)Cc1ccc(Cl)nc1` (stereo not shown) [AC117]: “A (50-100)”; for `Cc1cc(/C=C/C(c2cc(Cl)cc(Cl)c2)C(F)(F)F)ccc1C(=O)NCC1CCCO1` (stereo not shown) [AC118]: “A (50-100)”; for `O=C(CC(F)(F)F)NC1CCCc2cc(/C=C/C(c3cc(Cl)c(Cl)c(Cl)c3)C(F)(F)F)ccc21` (stereo not shown) [BC5]: “A (50-100)”.
The same measure for `O=C(NC1CCc2cc(/C=C/C(c3cc(Cl)c(Cl)c(Cl)c3)C(F)(F)F)ccc21)C1CC1` (stereo not shown) [BC6]: “A (50-100)”; for `O=C(NC1CCCc2cc(/C=C/C(c3cc(Cl)c(Cl)c(Cl)c3)C(F)(F)F)ccc21)C1CC1` (stereo not shown) [BC7]: “A (50-100)”; for `O=C(CC(F)(F)F)NC1CCc2cc(/C=C/C(c3cc(Cl)c(F)c(Cl)c3)C(F)(F)F)ccc21` (stereo not shown) [BC8]: “A (50-100)”.
To `O=C(Cc1ccc(Cl)nc1)NC1CCc2cc(/C=C/C(c3cc(Cl)c(F)c(Cl)c3)C(F)(F)F)ccc21` (stereo not shown) [BC9] belongs “A (50-100)”.
With `Fc1c(Cl)cc(C(/C=C/c2ccc3c(c2)CCC3NCCC(F)(F)F)C(F)(F)F)cc1Cl` (stereo not shown) [BC10, (E)-5-(3-(3,5-Dichloro-4-fluorophenyl)-4,4,4-trifluorobut-1-en-1-yl)-N-(3,3,3-trifluoropropyl)-2,3-dihydro-1H-inden-1-amine], the “BAW Rating” value is “A (50-100)”.
To `O=C(CC(F)(F)F)NCC(=O)n1ccc2cc(/C=C/C(c3cc(Cl)c(F)c(Cl)c3)C(F)(F)F)ccc21` (stereo not shown) [BC13, (E)-N-(2-(5-(3-(3,5-Dichloro-4-fluorophenyl)-4,4,4-trifluorobut-1-en-1-yl)-1H-indol-1-yl)-2-oxoethyl)-3,3,3-trifluoropropanamide] belongs “A (50-100)”.
To `O=C(Cn1ncc2cc(/C=C/C(c3cc(Cl)c(F)c(Cl)c3)C(F)(F)F)ccc2c1=O)NCC(F)(F)F` (stereo not shown) [BC14, (E)-2-(6-(3-(3,5-Dichloro-4-fluorophenyl)-4,4,4-trifluorobut-1-en-1-yl)-1-oxophthalazin-2(1H)-yl)-N-(2,2,2-trifluoroethyl)acetamide] belongs “A (50-100)”; to `O=C(NCc1ccc(/C=C/C(c2cc(Cl)cc(Cl)c2)C(F)(F)F)cc1)C1CC1` (stereo not shown) [CC2], “A (50-100)”; to `O=C(CC(F)(F)F)NCc1ccc(/C=C/C(c2cc(Cl)cc(Cl)c2)C(F)(F)F)cc1` (stereo not shown) [CC3], “A (50-100)”.
To `CCC(=O)NCc1ccc(/C=C/C(c2cc(Cl)cc(Cl)c2)C(F)(F)F)cc1` (stereo not shown) [CC4] belongs “A (50-100)”.
Consider `O=C(NCc1ccc(/C=C/C(c2cc(Cl)c(Cl)c(Cl)c2)C(F)(F)F)cc1)C1CC1` (stereo not shown) [CC5], for which the “BAW Rating” value was “A (50-100)”.
The same measure for `O=C(CC(F)(F)F)NCc1ccc(/C=C/C(c2cc(Cl)c(Cl)c(Cl)c2)C(F)(F)F)cc1` (stereo not shown) [CC6]: “A (50-100)”; for `CC(=O)NCc1ccc(/C=C/C(c2cc(Cl)cc(Cl)c2)C(F)(F)F)cc1Cl` (stereo not shown) [CC7, (E)-N-(2-Chloro-4-(3-(3,5-dichlorophenyl)-4,4,4-trifluorobut-1-en-1-yl)benzyl)acetamide]: “A (50-100)”.
Consider `O=C(NCc1ccc(/C=C/C(c2cc(Cl)cc(Cl)c2)C(F)(F)F)cc1Cl)C1CC1` (stereo not shown) [CC8], for which the “BAW Rating” value is given as “A (50-100)”.
With `O=C(CC(F)(F)F)NCc1ccc(/C=C/C(c2cc(Cl)cc(Cl)c2)C(F)(F)F)cc1Cl` (stereo not shown) [CC9], the “BAW Rating” value is listed as “A (50-100)”.
To `O=C(NCc1ccc(/C=C/C(c2cc(Cl)c(Cl)c(Cl)c2)C(F)(F)F)cc1Cl)C1CC1` (stereo not shown) [CC11] belongs “A (50-100)”; to `O=C(Cc1ccc(Cl)nc1)NCc1ccc(/C=C/C(c2cc(Cl)c(Cl)c(Cl)c2)C(F)(F)F)cc1Cl` (stereo not shown) [CC14], “A (50-100)”.
